Calls of active or inactive are those of the source. The calls are words filed in the database; no cut-off is given here.
Experiments:
Cannabinoid receptor 1 [1] = biological target: T1, Cannabinoid receptor 1 (Homo sapiens, UniProt P21554); experiment: Agonist activity at human CB1 receptor expressed in CHO cells assessed as induction of Ca2+ flux after 10 mins by Fluor-4 AM dye based assay; assay type: cell-based
[2] = biological target: T2, Cannabinoid receptor 1 (CB1) (Homo sapiens, UniProt P21554); experiment: Agonist activity at human CB1 receptor expressed in CHO cells assessed as induction of Ca2+ flux after 10 mins by Fluor-4 AM dye based assay relative to CP55940; assay type: cell-based; details: CHO cells expressing human CB1 receptor
Cannabinoid receptor 2 [3] = biological target: T3, Cannabinoid receptor 2 (Homo sapiens, UniProt P34972); experiment: Agonist activity at human CB2 receptor expressed in CHO cells assessed as induction of Ca2+ flux after 10 mins by Fluor-4 AM dye based assay; assay type: functional, cell-based
Cannabinoid receptor 2 [4] = biological target: T3, Cannabinoid receptor 2; experiment: Agonist activity at human CB2 receptor expressed in CHO cells assessed as induction of Ca2+ flux after 10 mins by Fluor-4 AM dye based assay relative to CP55940; assay type: functional, cell-based
[5] = biological target: T2, Cannabinoid receptor 1 (CB1); experiment: Antagonist activity at human CB1 receptor expressed in CHO cells assessed as inhibition of CP55940-induced Ca2+ flux at 10 uM preincubated for 10 mins followed by agonist addition by Fluor-4 AM dye based assay; assay type: cell-based; details: CHO cells expressing human CB1 receptor
Cannabinoid receptor 2 [6] = biological target: T3, Cannabinoid receptor 2; experiment: Antagonist activity at human CB2 receptor expressed in CHO cells assessed as inhibition of CP55940-induced Ca2+ flux at 10 uM preincubated for 10 mins followed by agonist addition by Fluor-4 AM dye based assay; assay type: functional, cell-based
Cannabinoid receptor 1 [7] = biological target: Cannabinoid receptor 1 (Rattus norvegicus, UniProt P20272); experiment: Agonist activity at rat CB1 receptor expressed in mouse AtT20 cells by FLIPR membrane potential assay; assay type: cell-based
Cannabinoid receptor 2 [8] = biological target: T3, Cannabinoid receptor 2; experiment: Agonist activity at human N-terminal HA-tagged CB2 receptor expressed in mouse AtT20 cells by FLIPR membrane potential assay; assay type: cell-based
Cannabinoid receptor 1 [9] = biological target: T1, Cannabinoid receptor 1; experiment: Agonist activity at human CB1 receptor expressed in CHO cells assessed as induction of Ca2+ flux at 10 uM after 10 mins by Fluor-4 AM dye based assay; assay type: cell-based
Cannabinoid receptor 2 [10] = biological target: T3, Cannabinoid receptor 2; experiment: Agonist activity at human CB2 receptor expressed in CHO cells assessed as inhibition of forskolin-induced cAMP accumulation preincubated for 20 mins followed by forskolin addition measured after 30 mins by HTRF assay; assay type: functional, cell-based
[11] = Elimination rate constant in C57 mouse at 10 mg/kg, ip measured up to 2 hrs by LC-MS/MS analysis; assay type: ADME, organism-based; details: in vivo
[12] = Half life in C57 mouse at 10 mg/kg, ip measured up to 2 hrs by LC-MS/MS analysis; assay type: ADME, organism-based; details: in vivo
[13] = Tmax in C57 mouse at 10 mg/kg, ip measured up to 2 hrs by LC-MS/MS analysis; assay type: ADME, organism-based; details: in vivo
[14] = Cmax in C57 mouse at 10 mg/kg, ip measured up to 2 hrs by LC-MS/MS analysis; assay type: ADME, organism-based; set-up: dose 10 mg/kg, route intraperitoneal; details: in vivo
[15] = AUC (0 to t) in C57 mouse at 10 mg/kg, ip measured up to 2 hrs by LC-MS/MS analysis; assay type: ADME, organism-based; set-up: dose 10 mg/kg, time < 2 hr, route intraperitoneal; details: in vivo
[16] = AUC (0 to infinity) in C57 mouse at 10 mg/kg, ip measured up to 2 hrs by LC-MS/MS analysis; assay type: ADME, organism-based; set-up: dose 10 mg/kg, time infinity, route intraperitoneal; details: in vivo
Mus musculus [17] = experiment: AUMC (0 to t) in C57 mouse at 10 mg/kg, ip measured up to 2 hrs by LC-MS/MS analysis; assay type: ADME, organism-based; details: in vivo
Mus musculus [18] = experiment: AUMC (0 to infinity) in C57 mouse at 10 mg/kg, ip measured up to 2 hrs by LC-MS/MS analysis; assay type: ADME, organism-based; details: in vivo
[19] = MRT in C57 mouse at 10 mg/kg, ip measured up to 2 hrs by LC-MS/MS analysis; assay type: ADME, organism-based; details: in vivo
Mus musculus [20] = experiment: In vivo partial agonist activity at CB2 receptor in EAE C57BL/6 mouse model assessed as reduction in clinical signs at 10 to 30 mg/kg, ip administered from day 3 after immunization with MOG until day 27; assay type: functional, organism-based
Mus musculus [21] = experiment: In vivo partial agonist activity at CB2 receptor in EAE C57BL/6 mouse model assessed as reduction in leukocyte infiltration in white matter region at 10 to 30 mg/kg, ip administered from day 3 after immunization with MOG until day 19 by H and E staining based assay; assay type: functional, organism-based
Mus musculus [22] = experiment: In vivo partial agonist activity at CB2 receptor in EAE C57BL/6 mouse model assessed as reduction in extensive demyelination in white matter at 10 to 30 mg/kg, ip administered from day 3 after immunization with MOG until day 19 by Luxol fast blue staining based assay; assay type: functional, organism-based
[23] = Ratio of Cmax in C57 mouse at 10 mg/kg, ip to EC50 for human CB2 receptor expressed in CHO cells assessed as induction of Ca2+ flux

T2 sequence (P21554 whole entry): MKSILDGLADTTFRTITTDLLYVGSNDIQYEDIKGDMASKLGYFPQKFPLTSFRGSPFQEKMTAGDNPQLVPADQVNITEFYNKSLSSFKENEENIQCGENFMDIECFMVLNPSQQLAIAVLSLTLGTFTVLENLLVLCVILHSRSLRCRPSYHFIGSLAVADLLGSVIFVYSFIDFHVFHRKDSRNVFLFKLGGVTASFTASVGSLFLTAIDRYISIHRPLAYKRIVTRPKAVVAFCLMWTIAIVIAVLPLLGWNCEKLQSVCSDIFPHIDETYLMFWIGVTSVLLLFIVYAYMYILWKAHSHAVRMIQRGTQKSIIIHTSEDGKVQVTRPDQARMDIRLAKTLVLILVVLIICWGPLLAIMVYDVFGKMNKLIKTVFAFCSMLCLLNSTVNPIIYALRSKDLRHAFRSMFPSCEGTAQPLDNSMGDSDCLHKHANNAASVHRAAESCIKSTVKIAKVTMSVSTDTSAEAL
T3 sequence (P34972 whole entry): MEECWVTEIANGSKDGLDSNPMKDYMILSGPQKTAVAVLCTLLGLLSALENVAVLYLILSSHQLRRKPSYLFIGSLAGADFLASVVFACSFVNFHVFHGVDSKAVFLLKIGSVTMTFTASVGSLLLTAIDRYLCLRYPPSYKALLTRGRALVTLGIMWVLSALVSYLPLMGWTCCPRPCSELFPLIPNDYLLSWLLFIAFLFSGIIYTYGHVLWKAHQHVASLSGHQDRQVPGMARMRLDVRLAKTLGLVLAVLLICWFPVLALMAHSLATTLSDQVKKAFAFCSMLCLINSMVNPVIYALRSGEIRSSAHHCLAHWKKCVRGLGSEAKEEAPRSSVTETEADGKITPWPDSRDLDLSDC
T1 sequence (P21554 whole entry): as the sequence (P21554 whole entry) above
Sequence of Cannabinoid receptor 1 (Rattus norvegicus, UniProt P20272) (P20272 whole entry): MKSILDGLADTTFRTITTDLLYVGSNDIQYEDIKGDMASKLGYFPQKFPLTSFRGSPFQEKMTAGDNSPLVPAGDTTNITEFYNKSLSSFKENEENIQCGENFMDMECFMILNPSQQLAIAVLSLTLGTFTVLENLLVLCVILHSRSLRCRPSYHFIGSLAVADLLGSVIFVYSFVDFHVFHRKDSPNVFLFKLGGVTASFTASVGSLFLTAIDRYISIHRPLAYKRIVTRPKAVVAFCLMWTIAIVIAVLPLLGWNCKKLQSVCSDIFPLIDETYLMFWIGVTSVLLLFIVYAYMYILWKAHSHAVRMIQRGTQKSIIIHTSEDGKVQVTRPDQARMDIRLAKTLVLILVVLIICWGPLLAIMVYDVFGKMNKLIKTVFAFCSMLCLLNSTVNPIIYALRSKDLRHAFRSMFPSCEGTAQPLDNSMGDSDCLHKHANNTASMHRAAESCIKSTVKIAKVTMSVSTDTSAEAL

CCCCCn1cc(C(=O)NC23CC4CC(CC(C4)C2)C3)c2ccccc21
EC50 (Cannabinoid receptor 1 [1]): 39 nM
Emax at 10 min [2]: 68.3%
EC50 (Cannabinoid receptor 2 [3]): 59 nM
Emax (Cannabinoid receptor 2 [4]): 66.3%
inhibition at 10 min, 10 µM [5]: < 50%
inhibition (Cannabinoid receptor 2 [6]): < 50%
EC50 (Cannabinoid receptor 1 [7]): 34 nM
EC50 (Cannabinoid receptor 2 [8]): 29 nM

O=C(NC12CC3CC(CC(C3)C1)C2)c1cc2ccccc2n1CCCCO
Activity (Cannabinoid receptor 1 [9]): < 50%
EC50 (Cannabinoid receptor 2 [3]): 120 nM
Emax (Cannabinoid receptor 2 [4]): 85%
inhibition at 10 min, 10 µM [5]: < 50%
inhibition (Cannabinoid receptor 2 [6]): < 50%
EC50 (Cannabinoid receptor 2 [10]): 142 nM
k el at 2 h [11]: 0.000189 s⁻¹
half-life [12]: 1.04 h
Tmax [13]: 0.25 h
Cmax [14]: 350 ng/mL
AUC(0-t) at 2 h [15]: 317 ng·h/mL
AUC(0-inf) [16]: 428 ng·h/mL
AUMCt (Mus musculus [17]): 248 hr.hr.ng/ml
AUMC (Mus musculus [18]): 637 hr.hr.ng/ml
MRT [19]: 1.51 h
Activity (Mus musculus [20]): Active
Activity (Mus musculus [21]): Active
Activity (Mus musculus [22]): Active
Ratio [23]: 8

Reference: ChEMBL document CHEMBL4038324, “Amidoalkylindoles as Potent and Selective Cannabinoid Type 2 Receptor Agonists with in Vivo Efficacy in a Mouse Model of Multiple Sclerosis” (J Med Chem, 2017)
